In US12187723B2 (BRISTOL-MYERS SQUIBB COMPANY, priority 2019, dated 2025):

Assays:
human TLR9 = target: T1, human TLR9 (Homo sapiens, UniProt Q9NR96); experiment: TLR9 inhibition reporter assay (HEK-Blue SEAP); type: cell-based; details: HEK-Blue cells overexpressing human TLR9, ODN2006 5 nM, 22 hour incubation
T1 construct: host or cells: HEK-Blue cells
T1 sequence (Q9NR96 26-1032): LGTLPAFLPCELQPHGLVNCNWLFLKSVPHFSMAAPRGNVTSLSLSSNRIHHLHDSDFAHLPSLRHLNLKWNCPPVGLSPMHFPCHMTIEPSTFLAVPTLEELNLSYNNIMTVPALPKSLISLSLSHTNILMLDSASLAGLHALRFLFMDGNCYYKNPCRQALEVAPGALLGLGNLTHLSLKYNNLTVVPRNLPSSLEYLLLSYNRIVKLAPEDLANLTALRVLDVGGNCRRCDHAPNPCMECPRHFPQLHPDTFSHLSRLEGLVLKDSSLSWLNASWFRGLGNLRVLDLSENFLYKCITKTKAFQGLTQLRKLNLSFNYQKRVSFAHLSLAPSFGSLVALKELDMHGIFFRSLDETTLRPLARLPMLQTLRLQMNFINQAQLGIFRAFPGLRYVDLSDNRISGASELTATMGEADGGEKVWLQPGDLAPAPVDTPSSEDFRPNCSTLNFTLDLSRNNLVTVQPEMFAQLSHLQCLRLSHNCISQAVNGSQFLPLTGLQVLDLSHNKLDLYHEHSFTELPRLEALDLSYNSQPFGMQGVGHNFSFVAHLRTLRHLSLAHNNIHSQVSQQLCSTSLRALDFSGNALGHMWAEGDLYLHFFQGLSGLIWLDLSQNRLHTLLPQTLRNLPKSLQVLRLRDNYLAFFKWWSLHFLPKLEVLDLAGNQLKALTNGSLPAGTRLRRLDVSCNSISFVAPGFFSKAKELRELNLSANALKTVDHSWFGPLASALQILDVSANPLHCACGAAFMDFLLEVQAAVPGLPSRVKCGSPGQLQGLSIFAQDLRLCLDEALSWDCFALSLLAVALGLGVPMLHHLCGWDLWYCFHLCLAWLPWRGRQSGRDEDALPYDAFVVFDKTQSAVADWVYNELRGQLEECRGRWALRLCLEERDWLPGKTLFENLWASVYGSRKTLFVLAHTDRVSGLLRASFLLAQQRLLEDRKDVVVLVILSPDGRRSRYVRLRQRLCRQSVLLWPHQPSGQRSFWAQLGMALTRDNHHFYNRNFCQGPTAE
Experimental: (§1) TLR7/8/9 Inhibition Reporter Assays
(§2) HEK-Blue™-cells (Invivogen) overexpressing human TLR7, TLR8 or TLR9 receptors were used for screening inhibitors of these receptors using an inducible SEAP (secreted embryonic alkaline phosphatase) reporter gene under the control of the IFN-β minimal promoter fused to five NF-κB and AP-1-binding sites. Briefly, cells are seeded into Greiner 384 well plates (15000 cells per well for TLR7, 20,000 for TLR8 and 25,000 for TLR9) and then treated with test compounds in DMSO to yield a final dose response concentration range of 0.05 nM-50 μM. After a 30 minute compound pre-treatment at room temperature, the cells are then stimulated with a TLR7 ligand (gardiquimod at a final concentration of 7.5 μM), TLR8 ligand (R848 at a final concentration of 15.9 μM) or TLR9 ligand (ODN2006 at a final concentration of 5 nM) to activate NF-κB and AP-1 which induce the production of SEAP. After a 22 hour incubation at 37° C., 5% CO2, SEAP levels are determined with the addition of HEK-Blue™ Detection reagent (Invivogen), a cell culture medium that allows for detection of SEAP, according to manufacturer's specifications. The percent inhibition is determined as the % reduction in the HEK-Blue signal present in wells treated with agonist plus DMSO alone compared to wells treated with a known inhibitor.

human TLR8 = target: T2, human TLR8 (Homo sapiens, UniProt Q9NR97); experiment: TLR8 inhibition reporter assay (HEK-Blue SEAP); type: cell-based; details: HEK-Blue cells overexpressing human TLR8, R848 15.9 μM, 22 hour incubation
T2 construct: host or cells: HEK-Blue cells
T2 sequence (Q9NR97 27-1041): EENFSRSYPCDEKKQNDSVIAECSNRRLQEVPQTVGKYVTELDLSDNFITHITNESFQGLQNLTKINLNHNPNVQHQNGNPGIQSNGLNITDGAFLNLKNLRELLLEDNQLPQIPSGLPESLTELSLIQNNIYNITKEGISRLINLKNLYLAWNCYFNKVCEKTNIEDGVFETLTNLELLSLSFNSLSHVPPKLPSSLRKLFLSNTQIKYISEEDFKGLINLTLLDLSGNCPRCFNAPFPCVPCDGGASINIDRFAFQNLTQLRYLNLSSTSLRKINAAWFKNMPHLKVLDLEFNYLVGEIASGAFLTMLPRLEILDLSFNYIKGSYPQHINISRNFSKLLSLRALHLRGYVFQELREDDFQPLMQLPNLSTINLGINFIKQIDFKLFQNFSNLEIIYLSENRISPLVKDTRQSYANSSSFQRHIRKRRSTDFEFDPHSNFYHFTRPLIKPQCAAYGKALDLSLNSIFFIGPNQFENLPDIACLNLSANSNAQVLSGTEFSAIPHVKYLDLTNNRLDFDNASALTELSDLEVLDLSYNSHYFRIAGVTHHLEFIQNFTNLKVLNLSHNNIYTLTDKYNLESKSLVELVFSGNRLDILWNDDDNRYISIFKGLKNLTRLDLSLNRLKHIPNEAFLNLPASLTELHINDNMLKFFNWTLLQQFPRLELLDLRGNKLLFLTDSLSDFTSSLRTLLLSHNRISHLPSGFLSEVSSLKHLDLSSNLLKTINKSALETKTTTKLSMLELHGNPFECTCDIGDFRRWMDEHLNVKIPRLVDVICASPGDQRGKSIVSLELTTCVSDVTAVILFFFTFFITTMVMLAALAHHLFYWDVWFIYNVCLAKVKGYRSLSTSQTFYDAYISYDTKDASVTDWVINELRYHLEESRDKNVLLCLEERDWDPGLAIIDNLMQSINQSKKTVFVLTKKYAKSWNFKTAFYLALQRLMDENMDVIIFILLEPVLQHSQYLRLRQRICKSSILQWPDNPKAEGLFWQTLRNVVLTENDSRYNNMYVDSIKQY
Experimental: as §1, §2

Structure (SMILES)	IC50 (human TLR9) [nM]	IC50 (human TLR8) [nM]
COc1cc(-c2cc3[nH]c(=O)n([C@H]4CCCN(CC5CC5)C4)c3cc2C(C)C)cn2ncnc12 (single isomer, unassigned) [Example 128]	> 50000	2.63
CCN1CCC[C@@H](n2c(=O)[nH]c3cc(-c4cc(OC)c5ncnn5c4)c(C(C)C)cc32)C1 (single isomer, unassigned) [Example 144]	14100	5.02
Cc1cc2c(cc1-c1cc(C)c3ncnn3c1)[nH]c(=O)n2C1CCN(C)CC1 [Example 3, 6-methyl-5-(8-methyl-[1,2,4]triazolo[1,5-a]pyridin-6-yl)-1-(1-methylpiperidin-4-yl)-1,3-dihydro-2H-benzo[d]imidazol-2-one]	4640	36.8
Cc1cc2c(cc1-c1cc(C)c3ncnn3c1)[nH]c(=O)n2[C@@H]1CCCN(CC(N)=O)C1 [Example 94, (R)-2-(3-(6-methyl-5-(8-methyl-[1,2,4]triazolo[1,5-a]pyridin-6-yl)-2-oxo-2,3-dihydro-1H-benzo[d]imidazol-1-yl)piperidin-1-yl)acetamide]	> 50000	339
Cc1cc2c(cc1-c1cc(C)c3ncnn3c1)[nH]c(=O)n2[C@@H]1CCCN(CC(=O)N(C)C)C1 [Example 95, (R)—N,N-dimethyl-2-(3-(6-methyl-5-(8-methyl-[1,2,4]triazolo[1,5-a]pyridin-6-yl)-2-oxo-2,3-dihydro-1H-benzo[d]imidazol-1-yl)piperidin-1-yl)acetamide]	14600	83.4
Cc1cc2c(cc1-c1cc(C)c3ncnn3c1)[nH]c(=O)n2[C@@H]1CCCN(CC#N)C1 [Example 96, (R)-2-(3-(6-methyl-5-(8-methyl-[1,2,4]triazolo[1,5-a]pyridin-6-yl)-2-oxo-2,3-dihydro-1H-benzo[d]imidazol-1-yl)piperidin-1-yl)acetonitrile]	8640	45.3
COCCN1CCC[C@@H](n2c(=O)[nH]c3cc(-c4cc(C)c5ncnn5c4)c(C)cc32)C1 [Example 97, (R)-1-(1-(2-methoxyethyl)piperidin-3-yl)-6-methyl-5-(8-methyl-[1,2,4]triazolo[1,5-a]pyridin-6-yl)-1,3-dihydro-2H-benzo[d]imidazol-2-one]	19100	43.7
COCCN1CCC[C@@H](n2c(=O)[nH]c3cc(-c4cc(OC)c5ncnn5c4)c(C)cc32)C1 [Example 98, (R)-5-(8-methoxy-[1,2,4]triazolo[1,5-a]pyridin-6-yl)-1-(1-(2-methoxyethyl)piperidin-3-yl)-6-methyl-1,3-dihydro-2H-benzo[d]imidazol-2-one]	5910	60.6
COc1cc(-c2cc3[nH]c(=O)n([C@@H]4CCCN(CC(=O)N(C)C)C4)c3cc2C)cn2ncnc12 [Example 99, (R)-2-(3-(5-(8-methoxy-[1,2,4]triazolo[1,5-a]pyridin-6-yl)-6-methyl-2-oxo-2,3-dihydro-1H-benzo[d]imidazol-1-yl)piperidin-1-yl)-N,N-dimethylacetamide]	> 50000	354
Cc1cc(-c2ccc3c(c2)[nH]c(=O)n3C2CCN(C(=O)CN(C)C)CC2)cn2ncnc12 [Example 102, 1-(1-(dimethylglycyl)piperidin-4-yl)-5-(8-methyl-[1,2,4]triazolo[1,5-a]pyridin-6-yl)-1,3-dihydro-2H-benzo[d]imidazol-2-one]	3210	> 3130

Stronger by IC50 (human TLR9), values ahead:

IC50 (human TLR9) [nM]	IC50 (human TLR8) [nM]	Structure (SMILES)
964	1280	Cc1cc(-c2ccc3c(c2)[nH]c(=O)n3C2CCN(C)CC2)cn2ncnc12 [Example 4, 5-(8-methyl-[1,2,4]triazolo[1,5-a]pyridin-6-yl)-1-(1-methylpiperidin-4-yl)-1,3-dihydro-2H-benzo[d]imidazol-2-one]
2750	> 3130	Cc1cc(-c2ccc3c(c2)[nH]c(=O)n3C2CCN(C(C)C)CC2)cn2ncnc12 [Example 5, 1-(1-isopropylpiperidin-4-yl)-5-(8-methyl-[1,2,4]triazolo[1,5-a]pyridin-6-yl)-1,3-dihydro-2H-benzo[d]imidazol-2-one]
871	46.3	CCN1CCC(n2c(=O)[nH]c3cc(-c4cc(C)c5ncnn5c4)c(C)cc32)CC1 [Example 6, 1-(1-ethylpiperidin-4-yl)-6-methyl-5-(8-methyl-[1,2,4]triazolo[1,5-a]pyridin-6-yl)-1,3-dihydro-2H-benzo[d]imidazol-2-one]
1330	48.6	CCCN1CCC(n2c(=O)[nH]c3cc(-c4cc(C)c5ncnn5c4)c(C)cc32)CC1 [Example 7, 6-methyl-5-(8-methyl-[1,2,4]triazolo[1,5-a]pyridin-6-yl)-1-(1-propylpiperidin-4-yl)-1,3-dihydro-2H-benzo[d]imidazol-2-one]
638	92.7	CCN1CCC(n2c(=O)[nH]c3cc(-c4cc(OC)c5ncnn5c4)c(C)cc32)CC1 [Example 9, 1-(1-ethylpiperidin-4-yl)-5-(8-methoxy-[1,2,4]triazolo[1,5-a]pyridin-6-yl)-6-methyl-1,3-dihydro-2H-benzo[d]imidazol-2-one]
354	89.7	COc1cc(-c2cc3[nH]c(=O)n(C4CCN(C(C)C)CC4)c3cc2C)cn2ncnc12 [Example 10, 1-(1-isopropylpiperidin-4-yl)-5-(8-methoxy-[1,2,4]triazolo[1,5-a]pyridin-6-yl)-6-methyl-1,3-dihydro-2H-benzo[d]imidazol-2-one]
1660	175	COc1cc(-c2cc3[nH]c(=O)n(C4CCN(C(=O)CN(C)C)CC4)c3cc2C)cn2ncnc12 [Example 100, 1-(1-(2-(dimethylamino)acetyl)piperidin-4-yl)-5-(8-methoxy-[1,2,4]triazolo[1,5-a]pyridin-6-yl)-6-methyl-1H-benzo[d]imidazol-2(3H)-one]
2580	50.3	Cc1cc2c(cc1-c1cc(C)c3ncnn3c1)[nH]c(=O)n2C1CCN(C(=O)CN(C)C)CC1 [Example 101, 1-(1-(dimethylglycyl)piperidin-4-yl)-6-methyl-5-(8-methyl-[1,2,4]triazolo[1,5-a]pyridin-6-yl)-1,3-dihydro-2H-benzo[d]imidazol-2-one]
